Data on one compound can be found in patent US11261429B2, “Enriched and expanded human cord blood stem cells for treatment of hematological disorders” (ICAHN SCHOOL OF MEDICINE AT MOUNT SINAI, priority 2013, dated 2022).

“And” between values parts separate entries of the source, which are not always exact repeats. Identical values can stand only once.

Format in all cases: cell-based, human
Assay [1] deals with CB CD34+ cells. Description: Ex vivo expansion of CB CD34+ cells with HDACIs, phenotypic analysis by flow cytometry. The note with it: for fold expansion of CD34+ cells / fold expansion of CD34+CD90+ cells: cytokines. The text has this:
CB collections were purchased from the Placental Blood Program at the New York Blood Center. CB-MNCs were isolated by Ficoll-Hypaque density centrifugation, and CD34+ cells were purified by immunotnagnetic selection as previously described (Chaurasia et al., “Chromatin-Modifying Agents Promote the Ex vivo Production of Functional Human Erythroid Progenitor Cells,” Blood 117:4632-4641 (2011), which is hereby incorporated by reference in its entirety). Highly purified (90%-98%) PCs (4.0-5.0×10^4) were cultured in SF Stemline II (Sigma-Aldrich) culture medium or IMDM (Lonza) containing 30% FBS (HyClone Laboratories) supplemented with 150 ng/ml SCF, 100 ng/ml fms-like tyrosine kinase receptor 3 (FLT3 ligand), 100 ng/ml thrombopoietin (TPO), and 50 ng/ml interleukin 3 (IL-3) (R&D Systems) and incubated in a humidified incubator maintained at 37° C. with 5% CO2. […] The cell populations studied and the various conditions under which they were cultured are referred to by specific terms listed in Table 1. Viable PC and cultured cells were enumerated using the trypan blue exclusion method. The fold expansion of CD34+ cells or subpopulations was calculated based on the number of CD34+ cells determined to be present in an individual CB collection and the number of CD34+ cells that would have been generated if all of the CD34+ cells within that primary CB collection were cultured using the various culture conditions described. PC or cultured cells expanded in the presence or absence of HDACIs were stained with an anti-human CD34 mAb or an isotype-matched control mAb and analyzed using a FACSCanto II (BD). CD34+ cells were re-isolated using a CD34+ cell isolation kit, as previously described, for further phenotypic and functional analyses. All mAbs were purchased from BD Biosciences and Cell Signaling Technology. Phenotypic analyses ([…], […], and […]7) of the ex vivo-expanded cells after 7 days in control cultures or cytokines plus an HDACI were performed as previously described (Chaurasia et al., “Chromatin-Modifying Agents Promote the Ex vivo Production of Functional Human Erythroid Progenitor Cells,” Blood 117:4632-4641 (2011), which is hereby incorporated by reference in its entirety).
(In flow cytometry, cells or beads pass a laser one at a time.)

The test system of another assay is CD34+CD90+ cells. Description: Cell cycle analysis by BrdU labeling. The procedure: The cell cycle status of the cultured CD34+CD90+ cells was assessed using the FITC-BrdU Kit (BD Pharmingen) according to the manufacturer's instructions. CB CD34+ cells cultured for 7 days under control conditions in the presence of VPA were subsequently pulsed with BrdU for 2.5 hours. […] After permeabilization, cells were treated with 30 μg of DNAse for 30 minutes at 37° C. and then stained with an FITC-conjugated anti-BrdU antibody and 7AAD. The cell cycle status of CD34+CD90+ gated cells was then documented using a FAC-SCanto II Flow Cytometer with FACSDiva software (BD Biosciences).

The subject of assay [2] is CB CD34+ cells. Description: Migration assay towards SDF1 (Transwell). The note with it: SDF1 100 ng/ml, after 16 and 48 hours, versus control. The procedure:
The migratory behavior of CB CD34+ cells was evaluated as previously described using 6.5 mm diameter, 5 μm pore Transwell plates (Costar) (Shivtiel et al., “CD45 Regulates Homing and Engraftment of Immature Normal and Leukemic Human Cells in Transplanted immunodeficient Mice,” Exp. Hematol. 39(12):1161-1170 (2011), which is hereby incorporated by reference in its entirety). The lower compartments of the Transwells were filled with StemLine II SF medium supplemented with 100 ng/ml of stromal-derived factor 1 (SDF1) (R&D Systems). The Transwell filters were coated with Matrigel for 30 minutes at 37° C. Re-isolated CD34+ cells (1×10^5) from the control and VPA-containing cultures were plated on the Matrigel-coated filters in 100 μl of Stemline II media. After 16 and 48 hours, cells that migrated to the lower compartment were enumerated, and the percentage of migration was calculated as follows: (number of cells migrated/total number of cells plated)×100.

Assay [3] relates to CB CD34+ cells. Briefly: Effect of siRNA transfection on cell numbers and CD34+/CD34+CD90+ cells. The note with it: VPA culture, 72 hrs after transfection. As for the experimental part:
CB CD34+ cells were treated with VPA under SF culture conditions. VPA-treated cells were transfected with individual SOX2, OCT4, NANOG, GAPDH, and scrambled siRNA or with a combination of SOX2, OCT4, and NANOG Silencer Select siRNAs (Invitrogen, CA). A GFP plasmid was included to determine the transfection efficiency according to the manufacturer's instructions for the Neon transfection system (Invitrogen).
After 72 hours of VPA treatment, cells (0.5×10^6 to 1×10^6) were washed in PBS and suspended in 8 μl of Neon resuspension buffer R. Individual siRNAs (2 μl, 10-30 nM) or a combination of SOX2, OCT4, NANOG (SON), or pcDNA6.2/EmGFP plasmid (200 ng; Invitrogen) were mixed with the 8 μl of cells according to the manufacturer's instructions. Cells were pulsed three times with a voltage of 1,400 and a width of 20 ms and immediately transferred to pre-warmed media supplemented with cytokines plus VPA. […]
In addition, cells treated with scrambled or combined SON siRNA were stained using human CD34 and CD90 mAbs, and the percentages of CD34+ and CD34+CD90+ cells were determined by flow cytometric analysis. […] SOX2, OCT4, NANOG, and ZIC3 protein expression levels following SON siRNA-mediated pluripotency gene knockdown were assessed by confocal microscopy as described above.

Where [4] appears, read: SF cultures containing VPA, 7 days.

As to `CCCC(CCC)C(=O)O` [VPA, valproic acid], in the assay with CB CD34+ cells [1] (7 days of culture with cytokines plus HDACI), the “percentage of CD34+CD90+ cells” value was 75.2%±10.7% and 74.2±9.8%. Further, in the assay on CB CD34+ cells [1] (SC conditions, 7 days), the “fold expansion of CD34+ cells” value amounted to 78 fold and the “fold expansion of CD34+CD90+ cells” value is on record as 89 fold. In the assay on CB CD34+ cells [1] (SF conditions, 7 days), the “fold expansion of CD34+ cells” value is 213 fold and the “fold expansion of CD34+CD90+ cells” value is reported as 20,202 fold. In the assay on CB CD34+ cells [1] (setting [4]), the “CD34+CD90+ cells expressing CD45RA” value is listed as 1.9%±2.1% and the “CD34+CD90+ cells expressing CD49f” value is listed as 47.0%±4.4%. Besides, in the assay with CB CD34+ cells [1] (VPA-treated cells after 7 days), the “B Cells (CD19)” value is listed as 0.5±0.1%, the “CD14+ cells” value stood at 3.9±1.5%, the “CD41+ cells” value is recorded as 8.9±2.0% and the “Glycophorin+ cells” value was determined as 17.0±5.4%. In addition, the “T Cells (CD3)” value in the assay on CB CD34+ cells [1] (VPA-treated cells after 7 days) is recorded as 0.2±0.3%. In the assay on CD34+CD90+ cells (SF culture with VPA 7 days, one of 3 representative experiments), the “percent CD34+CD90+ cells, flow cytometric analysis (FIG. 4A)” value is 82.9%. Further, in the assay with CD34+CD90+ cells (day 7, BrdU pulse 2.5 hours), the “CD34+CD90+ cells in G0/G1” value is 23.2%±13.8%, the “CD34+CD90+ cells in G2/M” value is given as 18.0%±1.2% and the “CD34+CD90+ cells in S phase” value is reported as 29.4%±7.9%. For the same compound, the “migration of CD34+ cells in response to SDF1” value in the assay on CB CD34+ cells [2] is listed as “significantly greater number of CD34+ cells treated with VPA migrated in response to SDF1”. For the same compound, in the assay with CB CD34+ cells [3], the “CD34+CD90+ cells (%)” value is 78.6 ± 2.0 % and the “Total number of cells/well” value is 4.0 × 10^6 ± 0.4 × 10^6 cells/well.
